Source: patent US20160206577A1, “NOVEL DRUG FORMULATION” (FAB PHARMA SAS, priority 2013, published 2016)
Each block holds one molecule with its values, some of them ahead of it.

Legend:
[1] = commercial intravenous formulations; cited from earlier work
[2] = system: methicillin-susceptible Staphylococcus aureus (MSSA); assay: Systemic mouse infection model against MSSA; format: in vivo; conditions: CD-1 mice, combined n=3 studies
Description: (§1) The aim of this study was to compare the in vivo efficacy of the prior art historical formulation with a novel nanosuspension of the present invention using a murine systemic infection model against both a susceptible (MSSA) and a methicillin resistant (MRSA) strains of S. aureus.
(§2) Three independent studies were run against each isolate (one MSSA and one MRSA), the data for the three studies combined and analysis performed. Bacterial isolates were grown to log phase in a liquid culture. Bacteria were diluted in 8% mucin to a concentration to achieve at least 90% mortality within 48 hours after infection. Six CD-1 female mice, 18-20 grams, were allocated per compound (I) concentration and were infected with 0.5 ml of bacterial suspension via intraperitoneal injection. Five minutes post-infection, mice were treated via intravenous administration. A nanosuspension of the invention (prepared according to Example 3) was prepared fresh just prior to single IV dose delivery at 50, 100 and 200 mg/kg (dosage of compound (I)). The prior art historical formulation of compound (I) (formulated at 10 mg/mL in 20% HPBCD, and 1% glucose) and vancomycin (Sigma Aldrich) were also administered IV at one dose and were used as comparators. Infection control mice were dosed with saline. Survival was assessed for 48 hours post infection. Date of death was recorded and a Probit analysis was performed to determine the PD50 (50% protective dose).

[3] = system: methicillin-resistant Staphylococcus aureus (MRSA 300); assay: Systemic mouse infection model against MRSA; format: in vivo; conditions: CD-1 mice, combined n=3 studies
Description: as §1, §2

[4] = cited from earlier work
MSSA and MRSA infections = conditions: murine model; cited from earlier work
[5] = system: Staphylococcus aureus MSSA, MRSA, VISA and VRSA strains; conditions: pathogenic MSSA; cited from earlier work
[6] = Particle size of suspensions made with concentrated aqueous PVP (solvent evaporation attempts); format: physicochemical; conditions: low molecular weight PVP (3,500 Da), concentrated aqueous polymer solution
Excerpt: Alternative solvent evaporation systems such as oil-in-oil and water-in-oil systems were investigated, however large particle sizes were still observed. In an attempt to reduce solvent dissolution into the continuous phase of the oil-in-water system, the aqueous phase was saturated with different salts to reduce solvent solubility. However, little benefit was achieved through the use of the saturated salt systems, as large crystals were still observed. It was thought that the use of a concentrated aqueous polymer solution would disrupt or prevent crystal formation. Multiple molecular weights and concentrations of PVP were studied. […] In the expectation of further reducing the particle size (to <1 μm i.e. to nanoparticulate form) further surfactants were added. However, by contrast, the addition of further surfactants to the solution yielded large size growth of particles.

[7] = single IV dose 50 mg/kg, 48 h post infection
[8] = single IV dose, Probit analysis

SMILES: CC(O)COC[C@H]1O[C@@H]2O[C@H]3[C@H](O)[C@@H](O)[C@@H](O[C@H]4[C@H](O)[C@@H](O)[C@@H](O[C@H]5[C@H](O)[C@@H](O)[C@@H](O[C@H]6[C@H](O)[C@@H](O)[C@@H](O[C@H]7[C@H](O)[C@@H](O)[C@@H](O[C@H]8[C@H](O)[C@@H](O)[C@@H](O[C@H]1[C@H](O)[C@H]2O)O[C@@H]8COCC(C)O)O[C@@H]7COCC(C)O)O[C@@H]6COCC(C)O)O[C@@H]5COCC(C)O)O[C@@H]4COCC(C)O)O[C@@H]3COCC(C)O (stereo partly drawn) [HPBCD, hydroxypropyl-beta-cyclodextrin]
Maximum reported safe daily dose [1]: 16 g/day

SMILES: CN[C@H](CC(C)C)C(=O)N[C@H]1C(=O)N[C@@H](CC(N)=O)C(=O)N[C@H]2C(=O)N[C@H]3C(=O)N[C@H](C(=O)N[C@H](C(=O)O)c4cc(O)cc(O)c4-c4cc3ccc4O)[C@H](O)c3ccc(c(Cl)c3)Oc3cc2cc(c3O[C@@H]2O[C@H](CO)[C@@H](O)[C@H](O)[C@H]2O[C@H]2C[C@](C)(N)[C@H](O)[C@H](C)O2)Oc2ccc(cc2Cl)[C@H]1O [Vancomycin, vancomycin]
% survival [2, 7]: 100%
Survival [2, 7]: 18/18
PD50 (50% protective dose) [2, 8]: <50 mg/kg
% survival [3, 7]: 100%
Survival [3, 7]: 18/18
PD50 (95% C.I.) [3, 8]: <50 mg/kg

Particle size of suspension [6]: 4.4 μm
SMILES: CCc1cc(O)c(Oc2ccc(C(N)=O)cc2F)cc1F [compound (I), 4-(4-ethyl-5-fluoro-2-hydroxyphenoxy)-3-fluorobenzamide]
Water-solubility [4]: relatively poor
Concentration at which compound (I) may be formulated ([4]; prior art historical formulation (water, glucose monohydrate, HPBCD)): up to 11.3 mg/mL
In vivo activity (MSSA and MRSA infections): active in vivo
In vitro activity [5]: highly active
